# Assay results reported in EP3884941A1, “INFLAMMASOME INHIBITORS AND USE THEREOF” (CENTRO DE INVESTIGACION PRINCIPE FELIPE, priority 2020, dated 2021).
# “Also recorded” adds a separate entry of the source. Peptide text beside a SMILES is read from it. * marks the point of attachment. Cbz = O=C(OCc1ccccc1)*; CH2F = FC*
# What was measured:
# [1] = molecular target: T1, ASC-mediated PC1 activation (Homo sapiens, UniProt P29466); assay: ASC-mediated PC1 reconstitution in vitro assay (primary screening); assay type: biochemical; conditions: PC1 50 nM, ASC 300 nM, substrate Ac-WEHD-AFC; read-out: IC50
# T1 construct: His; made in house; host or cells: PC1: Sf9 insect cells (baculovirus)
# T1 sequence (P29466 1-404): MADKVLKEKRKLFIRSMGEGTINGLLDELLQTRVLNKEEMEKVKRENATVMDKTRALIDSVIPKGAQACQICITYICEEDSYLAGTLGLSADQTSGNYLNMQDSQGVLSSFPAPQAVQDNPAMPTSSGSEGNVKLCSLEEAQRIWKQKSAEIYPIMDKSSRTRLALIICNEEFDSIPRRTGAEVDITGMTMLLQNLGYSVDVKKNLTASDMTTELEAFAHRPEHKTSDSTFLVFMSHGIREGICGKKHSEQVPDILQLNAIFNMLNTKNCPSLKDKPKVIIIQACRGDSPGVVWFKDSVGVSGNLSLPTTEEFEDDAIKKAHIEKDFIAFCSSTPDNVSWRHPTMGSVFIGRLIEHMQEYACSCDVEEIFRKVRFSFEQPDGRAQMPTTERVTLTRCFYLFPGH
# Procedure: Recombinant PC1 (50 nM) was preincubated with the indicated concentrations of compounds for 20 min at RT in Assay Buffer (20 mM HEPES pH 7.5, 10 mM KCI, 1.5 mM MgCl2, 1mM EDTA, 1 mM EGTA, 1 mM DTT). Then 300 nM of ASC were added and incubated for another 10 min period. Caspase-1 activation was measured using fluorogenic substrate Ac-WEHD-AFC (80 µM; Enzo Life Sciences) by continuously monitoring the release of the AFC (7-Amino-4-trifluoromethylcoumarin) product in a Wallac Victor workstation. The compounds were initially tested at 20 µM with 1% of DMSO. Data are reported as the percentage of inhibition compared with the absence of the compound.
# The materials and methods employed in these experiments are now described.
# NLRP3 inflammasome [2] = assay: inflammasome activation cellular assay, LPS plus ATP, THP-1 cells; assay type: cell-based, human; conditions: THP-1, LPS + ATP; pyroptosis / cell viability; MM01 1, 2.5 or 5 µM, VX-765 5 µM
# Procedure: The MM01 compound was evaluated in the THP-1, or PMA-differentiated THP-1 cells (50 nM PMA for 24h) stimulated with lipopolysaccharide (LPS) plus adenosine triphosphate (ATP) to stimulate ASC-dependent inflammasomes NLRP3. Briefly, 1x10^6 cells were seeded in 6-well plates in 1 mL RPMI media that contained 1% FBS. Cells were either mock-treated or primed with compounds at the indicated concentrations for 30 min, followed by treatment with 100 ng/mL LPS (Sigma) and 2.5 mM ATP (Sigma) for 6 h at 37°C. In the case of nigericin stimulation, cells were primed with LPS for 3h, and then 10 µM nigericin (Sigma) was added for 30 min. Supernatants were harvested and clarified by centrifugation at 1500 rpm at RT, and a cytokine analysis was performed. Both IL-1β secretion and the release of IL-18were monitored by an ELISA assay (BD OptEIA™ Human IL-1β ELISA Kit and Human IL-18 Module Set eBioscience) following the manufacturer's instructions. Cell viability was analyzed in parallel by evaluating the release of lactate dehydrogenase (LDH) according to a commercial kit (CytoTox-ONE™ Homogeneous Membrane Integrity Assay; Promega). The release of LDH was calculated using the formula: the release of LDH (%) = 100x (Abs490 treated -Abs490 untreated cells)/ Abs490 untreated cells lysed with Triton 9% (maximum release of LDH).
# The supernatants of the treated cells were precipitated by the chloroform-methanol method. Pellets were obtained by lysing cells in 25 mM of Tris-HCI pH 7.4, 1 mM EDTA, 1 mM EGTA and 1% SDS, plus protease and phosphatase inhibitors. The protein concentration was determined by the BCA protein assay. Samples were separated in a 14% SDS-PAGE gel, transferred to a nitrocellulose membrane and blocked with 5% skimmed milk for 1 h. Then the membrane was incubated overnight with primary antibodies: α-casp1 (1:1000; Cell Signaling 2225), α-IL-1β (1:1000; Acris R1130P), α-NLRP3 (1:1000; Cell Signaling 15101), α-tubulin (1:3000; Abcam ab6160) at 4°C. Membranes were washed and probed with the appropriate secondary antibody conjugated with peroxidase for enhanced chemiluminescence detection (Amersham Pharmacia Biotech).
# NLRP3 inflammasome [3] = assay: human PBMCs cellular assay, LPS plus ATP; assay type: cell-based; conditions: human PBMCs, LPS and ATP, VX-765 5 µM
# Procedure: Human peripheral blood mononuclear cells (PBMCs) are lymphocytes and monocytes. PBMCs were separated from the whole blood by a density gradient centrifugation method using Ficoll Histopaque. Purified PBMCs were plated in 24-well plates at 5000000 cells/well in free-serum RPMI medium. Cells were primed for 3 h with 10 ng/ml pure LPS followed by 4 h with compounds and 5 mM ATP. Supernatants were harvested and clarified by centrifugation at 1500 rpm at RT and cytokine and caspase-1 activation analysis was performed as previously described.
# [4] = test system: ASC specks in THP1-ASC-GFP cells; assay: ASC speck assay; assay type: cell-based, human; conditions: THP-1 ASC GFP, LPS 100 ng/mL + nigericin 10 µM; MM01 10 µM, VX-765 5 µM
# Procedure: THP1-ASC-GFP cells were seeded at 1×10^6/ml the day prior to use in experiments on 35 mm glass-bottom culture dishes. The following day medium was replaced containing the indicated inhibitors or vehicle for 30 min. Cells were then primed with 100 ng/ml LPS for 3h and stimulated with 10 µM nigericin for 30 min. Samples were fixed in 4% paraformaldehyde (PFA) for 10 min at RT and washed several times. Coverslips were prepared in mounting medium plus DAPI and analyzed in a Leica SP8 confocal microscope.
# Recombinant caspase-1 = molecular target: T2, Recombinant caspase-1 (Homo sapiens, UniProt P29466); assay: caspase-1 in vitro activation assay (secondary screening); assay type: biochemical; conditions: preactivated recombinant caspase-1
# T2 sequence (P29466 120-297 limits assumed): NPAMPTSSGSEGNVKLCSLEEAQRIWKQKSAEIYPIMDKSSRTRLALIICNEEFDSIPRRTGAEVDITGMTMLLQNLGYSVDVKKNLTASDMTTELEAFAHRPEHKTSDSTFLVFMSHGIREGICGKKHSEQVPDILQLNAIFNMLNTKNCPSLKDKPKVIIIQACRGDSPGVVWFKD
# T2 sequence (P29466 317-404 limits assumed): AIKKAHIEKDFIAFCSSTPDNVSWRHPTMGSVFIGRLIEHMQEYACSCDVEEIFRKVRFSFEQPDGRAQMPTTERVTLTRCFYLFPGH
# Procedure: Recombinant caspase-1 (50 nM) was incubated with the indicated concentrations of compounds for 20 min at RT in Assay Buffer. Then fluorogenic substrate Ac-WEHD-AFC (80 µM) was added, and activity was monitored in a Wallac Victor workstation. Data are reported as the percentage of inhibition compared with the absence of the inhibitor.
smiles,measurement,setting,value
CCCCN1C(=O)/C(=C2\SC(=S)N(Cc3ccco3)C2=O)c2cc(Br)ccc21,IC50,[1],300 ± 100 nM
COCCN1C(=O)/C(=C2/C(=O)Nc3ccc(Br)cc32)SC1=S,IC50,[1],1500 ± 800 nM
"CCO[C@@H]1OC(=O)C[C@@H]1NC(=O)[C@@H]1CCCN1C(=O)[C@@H](NC(=O)c1ccc(N)c(Cl)c1)C(C)(C)C [VX-765, reference compound]",LDH release,NLRP3 inflammasome [2],does not decrease; also recorded: no recovery of cell viability
same,inflammatory cell death,NLRP3 inflammasome [3]; LDH release,did not protect
same,cytokine release,NLRP3 inflammasome [3],able to inhibit
same,ASC speck formation,[4],not inhibited
"CC(NC(=O)C(NC(=O)OCc1ccccc1)C(C)C)C(=O)NC(CC(=O)O)C(=O)CF (stereo not drawn) [zVAD, reference compound] (Cbz-Val-Ala-Asp-CH2F; configuration not given here)",caspase-1 activity,Recombinant caspase-1,inhibits
